In a melting point compilation (Tetko et al.; mined from patent text by program, amines drawn as free bases though some values may be those of a salt) one finds melting point data, which are given here for 88 compounds.

Each structure is given as a SMILES string.

What is called melting point is the temperature, or range, at which the solid turns liquid. Consider `OCC1CCc2cc(OCc3ccccc3)ccc2O1` (racemic), for which the melting point lay in the range of 80 to 82 °C.
Then `O=Cc1ccc(C2CCCc3cncn32)cc1` (stereo not drawn), with 131 °C; and `CS(=O)(=O)O[C@H]1C[C@@H](C(=O)OCc2ccccc2)N(S(C)(=O)=O)C1`, with 91 to 92 °C.
As for `O=C(c1cc2c([nH]c3ccccc32)s1)N1CCOCC1`, the melting point is 92 to 95 °C.
For `CCC(=Cc1ccccc1)C1=CC=C2C(C1)C(C)(C)CCC2(C)C` (stereo not drawn), the melting point stood at 65 °C.
With `O=C(O)c1cc(-c2ccncc2)n[nH]c1=O`, the melting point is > 310 °C.
The compound `CCCCn1c(=O)cc(-c2ccc(NCCO)cc2)[nH]c1=O` showed a melting point of 207 to 208 °C.
To `CSc1nc(N)nn1C` belongs 104 to 109 °C; to `CSc1cccc(C(=C2CN(C(c3ccccc3)c3ccccc3)C2)S(C)(=O)=O)c1`, 146 °C.
Compound `O=[N+]([O-])C1=C2N(Cc3ccc(Cl)nc3)CCN2C2CCCC1O2` (stereo not drawn) registered a melting point of 175 °C.
In turn, `COCC[C@H]1CN(C2=Nc3ccccc3Nc3ccc(C(F)(F)F)cc32)CCN1` showed a melting point of 71 to 82 °C.
`Cc1c(C)c(C2CC(=O)C=C(O)C2)c(C)c2c1CC(C)(C)O2` (stereo not drawn) had a melting point of 121 to 123 °C.
With `CC(C)C(=O)n1cc(C(=O)C2CSC(c3cccnc3)N2)c2ccccc21` (stereo not drawn), the melting point was 78 to 80 °C.
With `CSCS[C@H](C)[C@](O)(Cn1cncn1)c1ccc(F)cc1F`, the melting point fell in the range of 108 to 109 °C.
`C=C1SC(SCc2ccccc2C(=COC)C(=O)OC)=NC1(C)C` yielded a melting point of 101 °C.
In the case of `CN(C)CC(O)C(c1ccccc1)c1ccc(F)cc1` (stereo not drawn), the melting point fell in the range of 55 to 57 °C.
To `Cc1cc(CCC(=O)c2ccc(-c3ccc(C(F)(F)F)cc3)s2)ccc1OC(C)(C)C(=O)O` belongs 130 to 131 °C.
In turn, `O=S1(=O)N=C(O)C(O)=N1` registered a melting point of 171 to 172 °C.
With `CC(C)(C)c1cc(-n2nc3ccc(Sc4ccccc4)cc3n2)c(O)c(C(C)(C)C)c1`, the melting point was 132 to 134 °C.
Compound `ON=C(c1ccccc1)c1ccc(C(=NO)c2ccccc2)cc1` came in with a melting point of 230 to 233 °C.
Then `C/C(=C\c1ccc(C#N)cc1)c1ccc2c(c1)C(C)(C)C=CC2(C)C`, with 140 to 142 °C; and `O=C(CN1C(=O)c2ccccc2C1=O)Nc1ccccc1Oc1ccccc1`, with 143 °C.
For the compound `Cc1cc(CNC(=O)c2nc3scc(COCc4ccc(C(=O)O)cc4)c3c(=O)[nH]2)ccc1F`, the melting point lay in the range of 246 to 248 °C.
To `CCCC[C@H](NC(=O)[C@H](COC(C)(C)C)NC(=O)OCc1ccccc1)C(=O)CSCc1ccco1` belongs 71 to 73 °C; to `CC(C)C(NC(=O)CN1C=Cc2c([nH]c3c(C(=O)O)cccc23)C1)C(=O)C(F)(F)F` (stereo not drawn), 260 to 262 °C; to `N[C@@H]1CN(c2c(F)cc3c(=O)c(C(=O)O)cn(C4CC4)c3c2F)C[C@@H]1n1ccnn1` (relative stereo), 245 to 247 °C.
The compound `COc1ccc(Cl)c2c1[nH]c(=O)n1nc(CO)cc21` came in with a melting point of 221 to 222 °C.
On to `CCN1C(=O)C(=O)N(c2cc(F)ccc2C)C1=S`, for which the melting point was in the range of 152 to 153 °C.
The compound `Cc1ccc(OC2SCC(O)C(O)C2O)c(-c2c(C)noc2C)n1` (stereo not drawn) came in with a melting point of 70 to 84 °C.
Compound `O=Cc1ccc(-c2ccc(OCc3ccccc3)cc2)cc1` displayed a melting point of 122 to 123 °C.
Compound `Oc1c(Br)cc(-c2c3ccccc3c(Br)c3oc4ccccc4c23)c(O)c1Br` came in with a melting point of 226 to 228 °C.
`C=CC(=O)NC1=NN(c2c(Cl)cc(Cl)cc2Cl)C(=O)C1c1cc[nH]n1` (stereo not drawn) came in with a melting point of 151 to 154 °C.
In the case of `CCCNC(=O)N1CCC(O)(Cc2c3c(nn2CC)c(N)nc2ccccc23)CC1`, the melting point is 208 to 210 °C.
With `O=C(O)Cc1cc([N+](=O)[O-])ccc1Oc1ccc(F)cc1`, the melting point lay within 129 to 130 °C.
To `O=C(c1ccc(F)cc1)C1CCN(CCN2c3cccc4cccc(c34)S2(=O)=O)CC1` belongs 145 °C; to `COc1nc(NC(=O)NS(=O)(=O)Nc2nc(C)cc(C)n2)nc(OC)n1`, 172 °C; to `O=C(Nc1cc(OCCCO/N=C/c2cc(C(F)(F)F)cc(C(F)(F)F)c2)ccc1C(=O)O)c1ccc(OC(F)(F)F)cc1`, 184 to 186 °C.
Then `COc1cc2c(=O)n(C)c(-c3ccc(OC4CCN(C5CCC5)CC4)cc3)nc2cn1`, with 146 to 148 °C; and `CCCCc1nc(Cl)c(CC(Cc2ccccc2)C(=O)O)n1Cc1ccccc1Cl` (stereo not drawn), with 138 to 139 °C.
On to `Cc1nc(N2CCCN(CC3CC3)C2=O)sc1C(=O)NCc1cccnc1`, for which the melting point is 142 to 145 °C.
Then `COc1cc(NCCCCCCCl)c2nccc(C)c2c1`, with 66 °C; and `Nc1ccn([C@@H]2C[C@H](CO)[C@@H](O)[C@H]2O)c(=O)n1`, with 214 °C; and `COc1cc(C=CC(=O)CCc2ccco2)ccc1O`, with 82 to 84 °C.
Then `COc1ccc(-c2ccc3c(Br)c(OC)ccc3c2)cc1`, with 172 to 174 °C; and `O=C1Nc2cccc(-c3ccccc3)c2/C1=C/c1ccc[nH]1`, with 184 to 185 °C; and `Cc1cc(SC2=C(O)CC(CCc3ccc(O)cc3)(CCc3ccc(O)cc3)OC2=O)c(C(C)(C)C)cc1OS(=O)(=O)N(C)C`, with 139 °C.
`CN(c1nc(-c2cc3ccccc3[nH]c2=O)cs1)S(=O)(=O)c1cccc(F)c1`: the melting point lay in the range of 247 to 249 °C.
As to `N#Cc1ccc(C(=C2C3CC4CC(C3)CC2C4)c2nc[nH]n2)cc1`, the melting point worked out at 105 °C.
`CCCC1=C(C#N)C(c2cccnc2)c2c[nH]nc2N1` (stereo not drawn): the melting point amounted to 201 °C.
For the compound `COc1ccc(C(=O)O)cc1NC(=O)C(CS)Cc1ccccc1` (stereo not drawn), the melting point is 188 to 192 °C.
In turn, `CCOC(=O)OC1=C(c2c(C)cc(C)cc2C)C(=O)NC1C1CCN(OC)CC1` (stereo not drawn) gave a melting point of 154 to 155 °C.
In turn, `CCOCc1nc2c(N)nc3cc(-c4cccc(CO)c4)cnc3c2n1CC(C)(C)NS(C)(=O)=O` showed a melting point of 173 to 174 °C.
To `Cc1cc(C(=O)N(C)C)cc(N)n1` belongs 165 to 171 °C; to `COc1ccc(NC(C)=O)c(O)c1C(C)=O`, 160 to 162 °C; to `CN1C(=O)N2CCOC2(c2ccccc2)c2cc([N+](=O)[O-])ccc21` (stereo not drawn), 136 °C.
Then `Cc1c(C)c2c(c(C)c1N)CC(C)(CN1CCC(C(=O)NCC(c3ccccc3)c3ccccc3)CC1)O2` (stereo not drawn), with 168 to 170 °C; and `CN(C)CCCNc1ccc(NCCCN(C)C)c2c1C(=O)c1c(O)ccc(O)c1C2=O`, with 154 to 157 °C; and `c1ccc2c(Sc3cccc4ccccc34)cccc2c1`, with 108 to 110 °C.
Then `Cc1ccc(C=CC(=O)C(CCC(=O)O)(Cc2ccccc2Cl)c2ccccc2)cc1` (stereo not drawn), with 120 to 147 °C; and `CNC(=NCCSCc1cc(CN(C)C)ccn1)NC#N`, with 114 to 116 °C.
For `CCC1(Cl)Cc2cc(OCCCC(=O)O)c(Cl)c(Cl)c2C1=O` (stereo not drawn), the melting point lay within 123 to 124 °C.
`COc1cc(OC)cc(-c2ncn(C)c2-c2ccc(OC(F)F)c(N)c2)c1`: the melting point was in the range of 99.2 to 101 °C.
Turning to `O=c1c2ccccc2cc2sccn12`, the melting point lay within 135 to 136 °C.
In the case of `CCOCc1nc2cnc3cc(Br)cnc3c2n1CC(C)C`, the melting point fell in the range of 115 to 116 °C.
To `COc1cc(CN(C)CCCOc2ccc(NC(=O)c3cccc4c(=O)c5cccc(OC)c5[nH]c34)cc2)cc(OC)c1OC` belongs 186 °C; to `CCCCCCCCCCN1C(=O)C2CC(c3ccc(N)cc3)(C2)C1=O`, 81.5 to 82.5 °C; to `O=[N+]([O-])c1cc(OCc2ccccc2)cc(C2CO2)c1` (stereo not drawn), 54 to 55 °C.
With `O=C(CCC1CCCC1)Nc1ccc(-n2nc(C(F)(F)F)cc2C(F)(F)F)cc1`, the melting point was in the range of 130 to 132 °C.
As to `O=C(CCC(O)c1ccccc1)NCc1ccccc1` (stereo not drawn), the melting point was 92 to 94 °C.
`COc1cc(C(O)CN2CCC(C(c3ccccc3)c3ccccc3)CC2)on1` (stereo not drawn): the melting point lay within 121 to 126 °C.
Compound `Cc1cccc2c(=O)cc(C3CCCC3)oc12` displayed a melting point of 51 to 52 °C.
`CC1=C2OC(C)(C)OC2CC(C)(C)C1=O` (stereo not drawn) displayed a melting point of 79 to 80 °C.
`Cc1cccc(-n2c(CCl)nc3ccccc3c2=O)c1` registered a melting point of 183 to 185 °C.
As for `CCc1nc2c(N)nc3cc(CCCN)ccc3c2n1CC1CCOCC1`, the melting point fell in the range of 217 to 220 °C.
On to `COCOc1ccccc1-c1cc(-c2cccc(C(=O)NC3CCCN(C(=O)OC(C)(C)C)C3)c2)c(C#N)c(NC(=O)c2cccs2)n1` (stereo not drawn), for which the melting point was in the range of 167 to 168 °C.
To `Cc1cc(C)cc(C(=O)NC(C(N)=O)n2cccn2)c1` (stereo not drawn) belongs 193 to 195 °C; to `Cc1nn(-c2cc(Oc3ccc(O)cc3)c(Cl)cc2F)c(=O)n1C(F)F`, 162 °C.
The compound `C=CCc1ccc2oc(C(=O)OCC)cc(=O)c2c1O` yielded a melting point of 99 to 100 °C.
For `CCc1nc2cc(OC)c(OC)cc2c(-c2ccc(OC)c(OC)c2)c1C(=O)O`, the melting point was in the range of 264 to 267 °C.
On to `CCSc1cccc(OC(F)(F)F)c1S(=O)(=O)NC(=O)c1noc(C)n1`, for which the melting point was 111 °C.
Compound `COc1cc(/C=C/c2nc3ccccc3c(=O)o2)ccc1OC(C)=O` displayed a melting point of 185 to 186 °C.
To `COc1cccc(C2(N(C)C)CCC(C(O)Cc3ccccc3)CC2)c1` (stereo not drawn) belongs 72 °C; to `O=C(CC(CSc1nc2ccccc2s1)C(=O)NC1CCCCC1)NC1CCCCC1` (stereo not drawn), 147 to 149 °C; to `O=C(c1cc[nH]c1)c1ccc2ccccc2c1`, 134 to 136 °C.
Compound `Cn1ccc(-c2sc(NC(=O)c3ccncc3)nc2-c2ccco2)cc1=O` displayed a melting point of 280 to 282 °C.
`O=C(Nc1cccc2cc(C(=O)O)[nH]c12)c1cc(OCc2ccccc2F)cc(OCc2ccccc2F)c1` yielded a melting point of 271 to 273 °C.
For `C#Cc1ccnc(-c2ccc(Br)cc2[N+](=O)[O-])c1`, the melting point is 166 to 171 °C.
In the case of `CCCNC(=O)c1ccc(CCCc2cc(S(C)(=O)=O)ccc2OCc2ccccc2)cc1`, the melting point worked out at 121 °C.
